Experimental data reported in PubChem BioAssay AID200 (DTP/NCI, 2004).
Several values for one entry are separate records, joined by “and”; a condition that tells them apart may be missing. Equal values may be shown once. Inconclusive results and toxic doses are left out. Where a SMILES comes first, the peptide text is derived from it.

System: B6C3F1 mice, B16 melanoma ip, median survival T/C
Test: NCI In Vivo Anticancer Drug Screen. Data for tumor model B16 Melanoma (intraperitoneal) in B6C3F1 mice
Conditions: endpoint: median survival time, higher = longer survival
Outline: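 Readout: survival or tumor size in treated mice relative to vehicle controls (T/C). Model uses transplantable tumors grown in mice.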

[1] = dose: 25.0 mg/kg/injection, schedule: Q01DX009 (ip), vehicle: saline
[2] = dose: 50.0 mg/kg/injection, schedule: Q01DX009 (ip), vehicle: saline
[3] = dose: 100.0 mg/kg/injection, schedule: Q01DX009 (ip), vehicle: saline
[4] = dose: 100.0 mg/kg/injection, schedule: Q01DX009 (ip), vehicle: suspension in saline
[5] = dose: 0.5 mg/kg/injection, schedule: Q01DX005 (iv), vehicle: saline with Tween-80
[6] = dose: 0.5 mg/kg/injection, schedule: Q01DX009 (ip), vehicle: saline with Tween-80
[7] = dose: 1.0 mg/kg/injection, schedule: Q01DX005 (iv), vehicle: saline with Tween-80
[8] = dose: 2.0 mg/kg/injection, schedule: Q01DX005 (iv), vehicle: saline with Tween-80
[9] = dose: 2.0 mg/kg/injection, schedule: Q01DX009 (ip), vehicle: saline with Tween-80
[10] = dose: 0.25 mg/kg/injection, schedule: Q01DX009 (ip), vehicle: water
[11] = dose: 0.5 mg/kg/injection, schedule: Q01DX009 (ip), vehicle: water
[12] = dose: 1.0 mg/kg/injection, schedule: Q01DX009 (ip), vehicle: water
[13] = dose: 12.5 mg/kg/injection, schedule: Q01DX009 (ip), vehicle: saline with Tween-80
[14] = dose: 25.0 mg/kg/injection, schedule: Q01DX009 (ip), vehicle: saline with Tween-80
[15] = dose: 50.0 mg/kg/injection, schedule: Q01DX009 (ip), vehicle: saline with Tween-80
[16] = dose: 100.0 mg/kg/injection, schedule: Q01DX009 (ip), vehicle: saline with Tween-80
[17] = dose: 200.0 mg/kg/injection, schedule: Q01DX009 (ip), vehicle: saline with Tween-80
[18] = dose: 12.5 mg/kg/injection, schedule: Q01DX009 (ip), vehicle: saline
[19] = dose: 6.25 mg/kg/injection, schedule: Q01DX009 (ip), vehicle: saline with Tween-80

COc1cc(C2c3cc4c(cc3[C@@H](OC3OC5CO[C@@H](C)OC5C(O)C3O)[C@H]3COC(=O)C23)OCO4)cc(OC)c1OC (some centres undefined)
T/C (dose: 21.6 mg/kg/injection, schedule: Q01DX009 (ip), vehicle: suspension in saline): 120 % of control | T/C [1]: 150 % of control | T/C [2]: 160 % of control | T/C (dose: 60.0 mg/kg/injection, schedule: Q01DX009 (ip), vehicle: suspension in saline): 162 % of control | T/C [3]: 193 % of control | T/C [4]: 183 % of control

NC(N)=N/N=C/c1ccc(Cl)cc1Cl
T/C [1]: 100 % of control | T/C [2]: 89 % of control | T/C [3]: 95 % of control

COc1ccc(CC2C(=O)NC(C)C(=O)N(C)C3Cc4ccc(cc4)Oc4cc(ccc4O)CC(C(=O)NC(C)C(=O)NC(C)C(=O)N2C)N(C)C3=O)cc1 (centres undefined)
T/C (dose: 0.25 mg/kg/injection, schedule: Q01DX009 (ip), vehicle: saline with Tween-80): 158 % of control | T/C (dose: 0.5 mg/kg/injection, schedule: Q01DX005 (ip), vehicle: saline with Tween-80): 110 % of control | T/C [5]: 102 % of control and 104 % of control | T/C (dose: 0.5 mg/kg/injection, schedule: Q01DX009 (ip), vehicle: saline + Tween-80 + alcohol): 118 % of control | T/C [6]: 162 % of control and 166 % of control | T/C (dose: 1.0 mg/kg/injection, schedule: Q01DX005 (ip), vehicle: saline with Tween-80): 124 % of control | T/C [7]: 109 % of control and 105 % of control | T/C (dose: 1.0 mg/kg/injection, schedule: Q01DX009 (ip), vehicle: saline + Tween-80 + alcohol): 117 % of control | T/C (dose: 1.0 mg/kg/injection, schedule: Q01DX009 (ip), vehicle: saline with Tween-80): 91 % of control | T/C [8]: 122 % of control and 107 % of control | T/C [9]: 122 % of control | T/C (dose: 4.0 mg/kg/injection, schedule: Q01DX005 (ip), vehicle: saline with Tween-80): 122 % of control | T/C (dose: 4.0 mg/kg/injection, schedule: Q01DX005 (iv), vehicle: saline with Tween-80): 109 % of control and 111 % of control | T/C (dose: 4.0 mg/kg/injection, schedule: Q01DX009 (ip), vehicle: other): 150 % of control | T/C (dose: 4.0 mg/kg/injection, schedule: Q01DX009 (ip), vehicle: saline with Tween-80): 161 % of control | T/C (dose: 8.0 mg/kg/injection, schedule: Q01DX005 (iv), vehicle: saline with Tween-80): 110 % of control and 116 % of control | T/C (dose: 8.0 mg/kg/injection, schedule: Q01DX009 (ip), vehicle: other): 159 % of control

CC(C)(O)/C=C/C(=O)[C@](C)(O)[C@H]1[C@H](O)C[C@@]2(C)[C@@H]3CC=C4[C@@H](C=C(O)C(=O)C4(C)C)[C@]3(C)C(=O)C[C@]12C
T/C [10]: 99 % of control | T/C [11]: 89 % of control | T/C [12]: 89 % of control

CC(=O)C[n+]1ccc(C)cc1Sc1ccccc1C
T/C [13]: 97 % of control | T/C [14]: 97 % of control | T/C [15]: 96 % of control | T/C [16]: 100 % of control | T/C [17]: 101 % of control

O=S(=O)(O)c1cc(N=C=S)ccc1/C=C/c1ccc(N=C=S)cc1S(=O)(=O)O
T/C [18]: 96 % of control | T/C [1]: 95 % of control | T/C [2]: 91 % of control | T/C [3]: 86 % of control

COCCOC(=O)Cc1ccc(OC)c(OC)c1
T/C [18]: 108 % of control | T/C [1]: 98 % of control | T/C [2]: 104 % of control | T/C (dose: 400.0 mg/kg/injection, schedule: Q01DX009 (ip), vehicle: saline): 87 % of control

Cc1cc(Cc2cc(C)c(C)c(C)c2C)c(C)c(C)c1C
T/C (dose: 0.78 mg/kg/injection, schedule: Q01DX009 (ip), vehicle: saline with Tween-80): 89 % of control | T/C (dose: 1.56 mg/kg/injection, schedule: Q01DX009 (ip), vehicle: saline with Tween-80): 91 % of control | T/C (dose: 3.13 mg/kg/injection, schedule: Q01DX009 (ip), vehicle: saline with Tween-80): 100 % of control | T/C [19]: 106 % of control

CCCCC(CC)(CC(=N)C(C)(C)C)c1ccccc1 (centres undefined)
T/C (dose: 25.0 mg/kg/injection, schedule: Q01DX009 (ip), vehicle: saline + Tween-80 + alcohol): 104 % of control | T/C (dose: 50.0 mg/kg/injection, schedule: Q01DX009 (ip), vehicle: saline + Tween-80 + alcohol): 96 % of control

COc1cc([C@@H]2c3cc4c(cc3[C@H](OC3OC5COC(c6ccccc6)OC5C(O)C3O)[C@H]3COC(=O)[C@H]23)OCO4)cc(OC)c1OC (some centres undefined)
T/C [19]: 123 % of control | T/C [14]: 154 % of control | T/C [15]: 169 % of control and 177 % of control

CN(C)N=Nc1cccc(C(N)=O)c1
T/C [2]: 119 % of control | T/C [3]: 67 % of control

CS(=O)(=O)Nc1ccc(C(=O)CCN2CCCCCC2)cc1
T/C (dose: 25.0 mg/kg/injection, schedule: Q01DX009 (ip), vehicle: suspension in saline): 122 % of control | T/C (dose: 50.0 mg/kg/injection, schedule: Q01DX009 (ip), vehicle: suspension in saline): 98 % of control | T/C [4]: 96 % of control | T/C (dose: 200.0 mg/kg/injection, schedule: Q01DX009 (ip), vehicle: suspension in saline): 92 % of control

Nc1nc(-c2ccc([N+](=O)[O-])cc2)c(Br)c(=O)[nH]1
T/C [14]: 98 % of control | T/C [15]: 107 % of control | T/C [16]: 107 % of control | T/C [17]: 95 % of control

O=C(NC(Cc1cccc(F)c1)C(=O)O)c1ccccc1 (centres undefined)
T/C (dose: 6.25 mg/kg/injection, schedule: Q01DX009 (ip), vehicle: other): 104 % of control | T/C (dose: 12.5 mg/kg/injection, schedule: Q01DX009 (ip), vehicle: other): 110 % of control | T/C (dose: 25.0 mg/kg/injection, schedule: Q01DX009 (ip), vehicle: other): 99 % of control | T/C (dose: 50.0 mg/kg/injection, schedule: Q01DX009 (ip), vehicle: other): 88 % of control

O=c1ccc2ccccc2o1
T/C (dose: 7.5 mg/kg/injection, schedule: Q01DX009 (ip), vehicle: saline with Tween-80): 116 % of control and 118 % of control | T/C (dose: 15.0 mg/kg/injection, schedule: Q01DX009 (ip), vehicle: saline with Tween-80): 117 % of control and 120 % of control | T/C (dose: 30.0 mg/kg/injection, schedule: Q01DX009 (ip), vehicle: saline with Tween-80): 111 % of control and 112 % of control | T/C (dose: 60.0 mg/kg/injection, schedule: Q01DX009 (ip), vehicle: saline with Tween-80): 120 % of control and 100 % of control | T/C (dose: 120.0 mg/kg/injection, schedule: Q01DX009 (ip), vehicle: saline with Tween-80): 90 % of control and 96 % of control

O=C(O)c1cc(C(=O)O)c(C(=O)O)cc1C(=O)O.[NH2-].[NH2-].[NH2-].[NH2-].[Pt+2].[Pt+2]
T/C (dose: 0.12 mg/kg/injection, schedule: Q01DX009 (ip), vehicle: water): 110 % of control | T/C [10]: 104 % of control | T/C [11]: 109 % of control and 110 % of control | T/C [12]: 114 % of control and 118 % of control | T/C (dose: 8.0 mg/kg/injection, schedule: Q01DX009 (ip), vehicle: water): 154 % of control

CC(O)C(NC(=O)CNC(=O)CNC(=O)OCc1ccccc1)C(=O)O (centres undefined) (HELM PEPTIDE1{[O=C(OCc1ccccc1)[*:2]].G.G.[CC(O)C(N[*:1])C(=O)O]}$$$$V2.0)
T/C (dose: 100.0 mg/kg/injection, schedule: Q01DX009 (ip), vehicle: Klucel (hydroxypropylcellulose) (HPC)): 103 % of control | T/C (dose: 200.0 mg/kg/injection, schedule: Q01DX009 (ip), vehicle: Klucel (hydroxypropylcellulose) (HPC)): 106 % of control | T/C (dose: 400.0 mg/kg/injection, schedule: Q01DX009 (ip), vehicle: Klucel (hydroxypropylcellulose) (HPC)): 113 % of control

CN=S(=O)(OCCCCCOS(=O)(=NC)c1ccccc1)c1ccccc1 (centres undefined)
T/C [13]: 112 % of control and 201 % of control | T/C [14]: 119 % of control | T/C [16]: 198 % of control

COc1ccc(CC2C(=O)NC(C)C(=O)N(C)C3C(=O)N(C)C(Cc4ccc(O)c(c4)Oc4ccc(cc4)C3O)C(=O)NC(C)C(=O)NC(C)C(=O)N2C)cc1 (centres undefined)
T/C (dose: 0.25 mg/kg/injection, schedule: Q01DX005 (ip), vehicle: saline with Tween-80): 123 % of control | T/C (dose: 0.25 mg/kg/injection, schedule: Q01DX005 (iv), vehicle: saline with Tween-80): 89 % of control and 107 % of control | T/C [5]: 98 % of control and 100 % of control | T/C [6]: 174 % of control | T/C [7]: 98 % of control and 99 % of control | T/C [8]: 98 % of control and 104 % of control | T/C [9]: 152 % of control

Cc1cc(O)c(O)c(Oc2cc(C)cc(O)c2O)c1
T/C (dose: 75.0 micrograms/kg/injection, schedule: Q01DX009 (ip), vehicle: saline): 94 % of control | T/C (dose: 150.0 micrograms/kg/injection, schedule: Q01DX009 (ip), vehicle: saline): 104 % of control | T/C (dose: 300.0 micrograms/kg/injection, schedule: Q01DX009 (ip), vehicle: saline): 105 % of control

O=C(Nc1cc(Cl)ccc1C(=O)O)c1cccc(C[n+]2ccccc2)c1
T/C [14]: 101 % of control | T/C [15]: 94 % of control | T/C [16]: 94 % of control
